The source of these data is patent publication US20250186404A1, “METHODS OF USING A (THIAZOLYL)BENZENESULFONAMIDE DERIVATIVE” (Cyteir Therapeutics, Inc., priority 2023, published 2025).

Data set [1] has as its system ES2 ovarian cancer cell line. The data set can be described thus: ES2 cytotoxicity (Cytotox Green) and cell viability (CellTiterGlo, NCI method). It is filed as cell-based. As to the method: MCT4 was over-expressed in ES2 cells following lentiviral transduction. Cell viability was assessed in empty vector (EV) control and MCT4 over-expressing cells after Compound 67A treatment and relative cell growth was quantified using the NCI method (FIG. 10).
The ES2 ovarian cancer cell line was treated with a titration of Compound 67A, and cytotoxicity was assessed after 24 hours of treatment with Cytotox Green and cell viability after 96 hours with CellTiterGlo (FIG. 18).
On the technique in general: ATP-based viability assays read luminescence as a measure of living cells.

The test system of another data set is SU8686. Put plainly: Compound 67A sensitivity of CRISPR screen cell line SU8686. The format is cell-based. The settings on record: Homo sapiens, SU.86.86; SU8686, Pancreatic Cancer. The text has this: Three cell lines with varying sensitivities to Compound 67A were utilized in the CRISPR screen (Table 3, FIG. 11).
The target in a further data set is T1, MCT1/BSG complex (Homo sapiens, UniProt P53985).
T1 sequence (P53985 1-500): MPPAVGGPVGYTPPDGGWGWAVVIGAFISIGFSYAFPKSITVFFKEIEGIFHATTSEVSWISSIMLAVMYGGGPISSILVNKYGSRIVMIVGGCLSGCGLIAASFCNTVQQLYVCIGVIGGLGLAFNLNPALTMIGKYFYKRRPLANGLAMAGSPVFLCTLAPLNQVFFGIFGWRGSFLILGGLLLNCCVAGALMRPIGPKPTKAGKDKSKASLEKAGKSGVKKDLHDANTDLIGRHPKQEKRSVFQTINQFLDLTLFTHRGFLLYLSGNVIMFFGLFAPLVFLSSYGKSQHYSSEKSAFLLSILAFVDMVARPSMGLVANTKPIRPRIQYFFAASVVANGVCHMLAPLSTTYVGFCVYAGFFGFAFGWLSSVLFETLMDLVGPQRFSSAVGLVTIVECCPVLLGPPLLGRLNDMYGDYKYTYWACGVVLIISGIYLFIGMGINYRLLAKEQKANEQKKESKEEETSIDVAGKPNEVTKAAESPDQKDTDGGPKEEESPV
T1 sequence (P35613 140-385 partner limits assumed): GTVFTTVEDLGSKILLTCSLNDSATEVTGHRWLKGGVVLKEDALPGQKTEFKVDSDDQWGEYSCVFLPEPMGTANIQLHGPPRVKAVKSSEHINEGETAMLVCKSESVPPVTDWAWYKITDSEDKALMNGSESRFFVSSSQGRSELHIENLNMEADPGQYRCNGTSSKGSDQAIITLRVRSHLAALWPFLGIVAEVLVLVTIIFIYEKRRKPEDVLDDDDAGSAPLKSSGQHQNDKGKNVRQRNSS
The data set can be described thus: Microscale thermophoresis (MST) direct binding. The settings on record: purified hexahistidine-tagged MCT1/BSG complex, read-out: Kd, binding to MCT1/basigin. The text has this: Microscale thermophoresis (MST) monitors the solution phase change in protein fluorescence and mobility in response to a temperature gradient created with an infrared laser. The method is compatible with detergent solubilized proteins and enables measurement of direct ligand binding.
Purified hexahistidine-tagged MCT1/BSG complex was mixed with a hexahistidine interacting fluorescent dye and MST was monitored as a function of compound concentration.
(In MST a laser heats a spot of the sample, and binding alters the fluorescence response.)

The next data set addresses T2, Human MCT2 (Homo sapiens, UniProt O60669).
T2 construct: expressed in transfected cells
T2 sequence (O60669 1-478): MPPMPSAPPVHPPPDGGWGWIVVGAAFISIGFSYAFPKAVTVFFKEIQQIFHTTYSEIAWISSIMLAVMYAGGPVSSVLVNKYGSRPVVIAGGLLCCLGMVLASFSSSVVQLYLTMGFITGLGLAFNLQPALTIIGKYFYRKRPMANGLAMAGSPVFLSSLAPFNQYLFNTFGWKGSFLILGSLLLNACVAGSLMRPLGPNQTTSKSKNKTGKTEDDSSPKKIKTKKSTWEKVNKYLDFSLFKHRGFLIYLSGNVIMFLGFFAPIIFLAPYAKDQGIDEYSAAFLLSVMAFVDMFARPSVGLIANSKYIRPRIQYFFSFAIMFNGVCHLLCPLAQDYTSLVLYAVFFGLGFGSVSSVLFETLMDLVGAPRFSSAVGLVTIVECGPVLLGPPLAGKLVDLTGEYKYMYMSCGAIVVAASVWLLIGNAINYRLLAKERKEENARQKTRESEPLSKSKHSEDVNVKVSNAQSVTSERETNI
The data set can be described thus: Inhibition of 3BP import (rescue of viability) in MCT2-overexpressing INS-1 cells. The following applies: INS-1 cells over-expressing human MCT2, rescue from LC100 3BP. The format is cell-based. The procedure: Human MCT1-4 were stably expressed in INS-1 rat pancreatic islet B-cells, which are deficient in endogenous MCT expression. 3-Bromopyruvate (3BP), a highly reactive and cytotoxic monocarboxylate, can enter the INS-1 cells via the overexpressed MCT isoform, resulting in rapid cell death. However, prevention of 3BP transport into the cell by an MCT inhibitor can prevent 3BP-mediated cell death (FIG. 16).
INS-1 cells over-expressing an MCT paralog were treated with a titration of 3BP to determine the lowest concentration that results in 100% cell killing (LC100). The INS-1 cells were then pre-treated with a titration of Compound 67A before exposure to the LC100 concentration of 3BP specific for that MCT-over-expressing cell line, and rescue of cell viability was measured (FIG. 17).

In the next data set the target is T3, human MCT1 (Homo sapiens, UniProt P53985).
T3 construct: host or cells: MDCK-II (canine) cells, transient co-transfection
T3 sequence (P53985 1-500): T1 sequence (P53985 1-500)
T3 sequence (P35613 140-385 partner limits assumed): T1 sequence (P35613 140-385 partner limits assumed)
Put plainly: MCT1 Transport Inhibition Assay (TPGA uptake, LC-MS/MS). It is filed as cell-based. As to the method: Inhibition of MCT1 transport after treatment with compounds of the present invention was measured in MDCK-II cells that overexpress human MCT1 by quantifying the transport of 2-Thiophene-glycoxylic acid (TPGA) into cells using LC-MS/MS.
MDCK-II cells are seeded at 60,000 cells per well in growth medium (low-glucose DMEM+10% FBS) in 96-well trans-well membrane plates, and incubated overnight (37° C., 5% CO2). Cells were co-transfected with mammalian expression constructs coding for MCT1 and CD147 at a 2:1 ratio or an empty vector control (GFP) and then incubated for 48 h (37° C., 5% CO2). Cells were washed 3 times with HBSS and cells were preincubated with inhibitors or vehicle control at room temperature in HBSS for 30 min with orbital shaking (60 rpm). HBSS was aspirated from the wells and replaced with HBSS with 25 mM Bis-Tris pH5.5+inhibitor or vehicle control+500 μM TPGA and incubated for 1 min at room temperature with orbital shaking (60 rpm). Both the apical and basolateral side of the trans-well insert were washed 4 times with ice-cold PBS. Cells were lysed with 60 μL of cell extraction solution, and the amount of TPGA in each well was quantified in triplicate by LC-MS/MS. The MCT1-mediated uptake rate was calculated using the following equation: […]
Percent inhibition for each concentration of inhibitor tested was calculated using the following equation: […]
Curves were fit to the calculated percent inhibition for each inhibitor, and the IC50 representing the concentration of inhibitor at which MCT1 is inhibited by 50% was calculated from this curve.
Canine MDCKII cells expressing human MCT1 were treated with a titration of Compound 67A, and import of the MCT1 substrate, 2-TPGA was measured by LC-MS (FIG. 1).

Setting [2] is: MDCK-II cells overexpressing human MCT1, TPGA transport, read-out: BioIVT MCT1 Transporter IC50.

Where two headings read alike, the source gives them in different places.

Broadly, the IC50 is the concentration needed to halve the response being measured. For `CC(C)OC(=O)Nc1ccc(-c2cnc([C@H]3CC[C@H](NC(=O)OC(C)C)CC3)s2)c(S(=O)(=O)NC(C)(C)C)c1` [Compound 67A], the cytotoxic response result in data set [1] (ES2, Cytotox Green after 24 hours and CellTiterGlo after 96 hours) is reported as “induced a clear cytotoxic response”. In data set [1] (ES2 MCT4 over-expressing vs empty vector control, NCI method), the “effect of MCT4 over-expression on anti-proliferative effects” value was “significantly reduced Compound 67A-mediated anti-proliferative effects”. The IC50 with SU8686 is more than 20000 nM; against Human MCT2, more than 33000 nM; at human MCT1 (Canine MDCKII cells expressing human MCT1, LC-MS, read-out: inhibits 2-TPGA import, IC50), 134 nM; on human MCT1 (setting [2]), 50 to 150 nM. Besides, the Kd on MCT1/BSG complex was 89 nM.
`O=C(Nc1ccccc1C(=O)O)c1cc(S(=O)(=O)c2ccccc2)ccc1Cl` [BAY8002]: the half-maximal inhibitory concentration (IC50) fell in the range of 1000 to 10000 nM against Human MCT2 and 50 to 150 nM on human MCT1 (setting [2]).
Consider AZD3965, for which the IC50 against Human MCT2 was 1000 to 10000 nM; at human MCT1 (setting [2]), 150 to 1000 nM.
